The results in this text go back to ChEMBL document CHEMBL3132801, “Meridianin G and its analogs as antimalarial agents” (Medchemcomm, 2013).

One may read the IC50 as the concentration that inhibits the measured activity by half. In general, MBC refers to the lowest tested concentration that kills the bacteria rather than only halting them. A word on the MIC: it is the least concentration at which growth counts as inhibited. As usually defined, the IC90 is the concentration needed for an effect of 90%.

One series concerns Aspergillus fumigatus. As to the kind of experiment: Antimicrobial activity against Aspergillus fumigatus by NCCLS method. In kind it is functional, organism-based.
The next series has as its system Candida albicans. The series can be described thus: Antimicrobial activity against Candida albicans by NCCLS method. In kind it is functional, organism-based.
A further series has as its system Cryptococcus neoformans. The series can be described thus: Antimicrobial activity against Cryptococcus neoformans by NCCLS method. It counts as functional, organism-based.
The subject of series [1] is Staphylococcus aureus. As to the kind of experiment: Antimicrobial activity against methicillin-resistant Staphylococcus aureus by NCCLS method. It counts as functional, organism-based.
Series [2] has as its system Staphylococcus aureus. The series can be described thus: Antimicrobial activity against Staphylococcus aureus by NCCLS method. In kind it is functional, organism-based.
For another series, the system named is Leishmania donovani. As to the kind of experiment: Antileishmanial activity against Leishmania donovani promastigotes after 48 hrs by Alamar Blue assay. As to conditions: for IC50: read-out: IC50. In kind it is functional, organism-based. (The colour change of resazurin is a common sign of viable cells or microbes.)
The subject of the next series is LLC-PK1. As to the kind of experiment: Cytotoxicity against a pig LLC-PK1 cells after 48 hrs by Neutral Red assay. It counts as cell-based. The following applies: Sus scrofa, LLC-PK1, 48 h.
The next series deals with Vero. The series can be described thus: Cytotoxicity against african green monkey Vero cells after 48 hrs by Neutral Red assay. As to conditions: Chlorocebus sabaeus. In kind it is cell-based.
The test system of the next series is HepG2. The series can be described thus: Cytotoxicity against human HepG2 cells after 48 hrs by Neutral Red assay. In kind it is cell-based. As to conditions: HepG2, 48 h.
For series [3], the system named is Plasmodium falciparum. As to the kind of experiment: Antimicrobial activity against Plasmodium falciparum W2 after 72 hrs by LDH activity assay. It counts as functional, organism-based.
Series [4] deals with Plasmodium falciparum. The series can be described thus: Antimicrobial activity against Plasmodium falciparum D6 after 72 hrs by LDH activity assay. In kind it is functional, organism-based.
The nature of series [5]: Selectivity index, ratio of IC50 for pig LLC-PK1 cells to IC50 for Plasmodium falciparum W2. In kind it is toxicity, cell-based. The following applies: read-out: Ratio IC50.
Series [6] can be described thus: Selectivity index, ratio of IC50 for african green monkey Vero cells to IC50 for Plasmodium falciparum W2. It counts as toxicity, cell-based. The following applies: read-out: Ratio IC50.
Series [7] in a line: Selectivity index, ratio of IC50 for human HepG2 cells to IC50 for Plasmodium falciparum W2. It counts as toxicity, cell-based. As to conditions: read-out: Ratio IC50.
Series [8] in a line: Selectivity index, ratio of IC50 for pig LLC-PK1 cells to IC50 for Plasmodium falciparum D6. In kind it is toxicity, cell-based. As to conditions: read-out: Ratio IC50.
The nature of series [9]: Selectivity index, ratio of IC50 for african green monkey Vero cells to IC50 for Plasmodium falciparum D6. In kind it is toxicity, cell-based. As to conditions: read-out: Ratio IC50.
A short description of series [10]: Selectivity index, ratio of IC50 for human HepG2 cells to IC50 for Plasmodium falciparum D6. As to conditions: read-out: Ratio IC50. It counts as toxicity, cell-based.

≈ marks a conversion by molar mass, not a printed value. Calls of active or inactive are those of the source. The calls are words filed in the database; no cut-off is given here. Some results are limits rather than exact numbers.

As for `CCOc1ccccc1C(=O)n1cc(-c2ccnc(N)n2)c2ccccc21`, the outcome with Aspergillus fumigatus and with Candida albicans was inactive. In addition, the IC50 in the series with Cryptococcus neoformans is 45.6 µM; in the series on Staphylococcus aureus [1], “Not Active”; in the series on Staphylococcus aureus [2] it was “Not Active”; in the series with Leishmania donovani (Leishmania donovani, 48 h), 47.4 µM; in the series on LLC-PK1 it was greater than 70 µM; in the series on Vero, greater than 70 µM. The IC50 in the series on HepG2 was greater than 70 µM; in the series on Plasmodium falciparum [3] it was “Not Active”; in the series with Plasmodium falciparum [4], “Not Active”. The MBC entry with Cryptococcus neoformans, in the series with Staphylococcus aureus [1] and in the series with Staphylococcus aureus [2] was “inactive” each time. The MIC result with Cryptococcus neoformans, with Staphylococcus aureus [1] and with Staphylococcus aureus [2] was “inactive” each time.
As for `COCCn1cc(-c2ccnc(N)n2)c2cc(Br)ccc21`, the outcome with Aspergillus fumigatus and in the series on Candida albicans was inactive. Also, the IC50 with Cryptococcus neoformans is 27.4 µM; with Staphylococcus aureus [1], “Not Active”; in the series on Staphylococcus aureus [2], “Not Active”; in the series on Leishmania donovani (Leishmania donovani, 48 h), 23.6 µM; in the series with LLC-PK1, 43 µM; in the series on Vero, greater than 72 µM. Also, the IC50 in the series with HepG2 is greater than 72 µM; with Plasmodium falciparum [3] it was “Not Active”; with Plasmodium falciparum [4] it was “Not Active”. This compound registered an MBC in the series with Cryptococcus neoformans of 57.6 µM (≈ 20 µg/mL). Moreover, the MIC in the series on Cryptococcus neoformans is 57.6 µM (≈ 20 µg/mL). For the same compound, the MBC result in the series with Staphylococcus aureus [1] and in the series on Staphylococcus aureus [2] was “inactive” each time. In addition, the MIC result in the series with Staphylococcus aureus [1] and in the series with Staphylococcus aureus [2] was “inactive” each time. Besides, the IC90 in the series on Leishmania donovani (Leishmania donovani, 48 h) is 52.2 µM.
As to `Nc1nccc(-c2cn(Cc3ccc(Cl)s3)c3ccccc23)n1`, the outcome in the series on Aspergillus fumigatus and in the series with Candida albicans was inactive. The IC50 in the series with Cryptococcus neoformans was 13 µM; with Staphylococcus aureus [1], “Not Active”; in the series with Staphylococcus aureus [2], “Not Active”; with Leishmania donovani (Leishmania donovani, 48 h), 41.3 µM; in the series on LLC-PK1 it was greater than 74 µM; with Vero, greater than 74 µM. For the same compound, the results for the IC50 in the series with HepG2, in the series on Plasmodium falciparum [3] and with Plasmodium falciparum [4] were greater than 74 µM, “Not Active” and “Not Active”, respectively. Further, the MBC with Cryptococcus neoformans is 14.7 µM (≈ 5.01 µg/mL). The same compound yielded an MIC in the series with Cryptococcus neoformans of 14.7 µM (≈ 5.01 µg/mL). Also, the MBC result in the series with Staphylococcus aureus [1] and in the series with Staphylococcus aureus [2] was “inactive” each time. Moreover, the MIC entry with Staphylococcus aureus [1] and with Staphylococcus aureus [2] was “inactive” each time. Moreover, in the series with Leishmania donovani, the IC90 result is “inactive”.
As for `Nc1nccc(-c2c[nH]c3ccc(Br)cc23)n1` [MERIDIANIN C], the outcome with Aspergillus fumigatus and with Candida albicans was inactive. For the same compound, the IC50 in the series on Cryptococcus neoformans is 56.5 µM; in the series with Staphylococcus aureus [1] it was “Not Active”; in the series on Staphylococcus aureus [2], “Not Active”; with Leishmania donovani (Leishmania donovani, 48 h), 64.9 µM; in the series on LLC-PK1 it was greater than 87 µM; in the series with Vero, greater than 87 µM. For the same compound, the IC50 in the series on HepG2 was greater than 87 µM; in the series with Plasmodium falciparum [3] (Plasmodium falciparum, W2, 72 h, read-out: IC50) it was 11.7 µM; with Plasmodium falciparum [4] (Plasmodium falciparum, D6, 72 h, read-out: IC50) it was 14.4 µM. For the same compound, the MBC entry with Cryptococcus neoformans, in the series with Staphylococcus aureus [1] and in the series with Staphylococcus aureus [2] was “inactive” throughout. The MIC entry in the series with Cryptococcus neoformans, in the series on Staphylococcus aureus [1] and in the series on Staphylococcus aureus [2] was “inactive” in each case. Besides, the selectivity ratio is greater than 7.4 in [5]; greater than 7.4 in series [6]; greater than 7.4 in series [7]; greater than 6 in [8]; greater than 6 in [9]; greater than 6 in series [10].
